Values quoted from earlier work as cited in patent US9775828B2, “Pharmaceutical composition with increased solubility by using saccharin” (University-Industry Foundation, Yonsei University, priority 2014, dated 2017).

Conditions: when administered to the oral cavity and the nasal cavity

bioavailability: about 40%
Compound: CN(C)CCc1c[nH]c2ccc(C[C@H]3COC(=O)N3)cc12 [Zolmitriptan, (S)-4-{{3-[2-(dimethylaminoethyl)]-1H-indol-5-1}methyl}-2-oxazolidinone]
